From ChEMBL document CHEMBL1153039, “Allosteric modulators of the adenosine A1 receptor: synthesis and pharmacological evaluation of 4-substituted 2-amino-3-benzoylthiophenes” (J Med Chem, 2009)
The source made the active and inactive calls. The rule behind the calls is not given here.

Tests used:
[1] = target: T1, Adenosine receptor A1 (Homo sapiens) (UniProt P30542); experiment: Allosteric modulation of human adenosine A1 receptor transfected in CHO FlpIn cells assessed as orthosteric agonist R-PIA-mediated ERK1/2 phosphorylation at 3 uM pretreated 30 mins before R-PIA challenge measured after 1.5 hrs by fluorescence assay; format: functional, cell-based
T1 sequence (whole entry): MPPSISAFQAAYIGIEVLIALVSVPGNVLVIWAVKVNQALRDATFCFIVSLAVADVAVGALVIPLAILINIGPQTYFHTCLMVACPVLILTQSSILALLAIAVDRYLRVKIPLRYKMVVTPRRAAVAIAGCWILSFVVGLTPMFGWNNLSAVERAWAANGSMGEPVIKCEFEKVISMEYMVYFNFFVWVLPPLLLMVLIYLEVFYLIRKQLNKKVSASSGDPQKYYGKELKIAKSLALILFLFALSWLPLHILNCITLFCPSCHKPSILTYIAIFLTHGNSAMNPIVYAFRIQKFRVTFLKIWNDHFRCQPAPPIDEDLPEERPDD

[2] = target: T1, Adenosine receptor A1 (Homo sapiens); experiment: Allosteric modulation of human adenosine A1 receptor transfected in CHO FlpIn cells assessed as orthosteric agonist R-PIA-mediated ERK1/2 phosphorylation at 10 uM pretreated 30 mins before R-PIA challenge measured after 1.5 hrs by fluorescence assay; format: functional, cell-based
[3] = target: T1, Adenosine receptor A1 (Homo sapiens); experiment: Binding affinity to allosteric site of unoccupied human adenosine A1 receptor transfected in CHO FlpIn cells assessed as potentiation of orthosteric agonist R-PIA-mediated ERK1/2 phosphorylation pretreated 30 mins before R-PIA challenge measured after 1.5 hrs by fluorescence assay; format: cell-based
[4] = target: T1, Adenosine receptor A1 (Homo sapiens); experiment: […] at human adenosine A1 receptor transfected in CHO FlpIn cells assessed as potentiation of orthosteric agonist R-PIA-mediated [35S]GTPgammaS binding at 0.1 to 3 uM after 60 mins by liquid scintillation counting; format: functional, cell-based
[5] = target: T1, Adenosine receptor A1 (Homo sapiens); experiment: Binding affinity to allosteric site of unoccupied human adenosine A1 receptor transfected in CHO FlpIn cells as potentiation of orthosteric agonist R-PIA-mediated [35S]GTPgammaS binding after 60 mins by liquid scintillation counting; format: functional, cell-based
[6] = target: T1, Adenosine receptor A1 (Homo sapiens); experiment: Allosteric modulation of human adenosine A1 receptor transfected in CHO FlpIn cells assessed as orthosteric agonist R-PIA-mediated ERK1/2 phosphorylation at 0.1 to 3 uM pretreated 30 mins before R-PIA challenge measured after 1.5 hrs by fluorescence assay; format: functional, cell-based

| Activity [1] | Activity [2] | pKb [3] | Activity [4] | pKb [5] | Activity [6] | SMILES |
| --- | --- | --- | --- | --- | --- | --- |
| 55% | 73% |  |  |  |  | Nc1scc(-c2ccc3ccccc3c2)c1C(=O)c1ccccc1 |
| 51% | 64% |  |  |  |  | Nc1scc(-c2ccccc2)c1C(=O)c1ccc(Cl)cc1 |
| 47% | 52% |  |  |  |  | Nc1scc(-c2ccc([N+](=O)[O-])cc2)c1C(=O)c1ccc(Cl)cc1 |
| 46% | 49% |  |  |  |  | Nc1scc(-c2ccc(Br)cc2)c1C(=O)c1ccccc1 |
| 52% | 52% |  |  |  |  | COc1ccc(-c2csc(N)c2C(=O)c2ccccc2)cc1 |
| 83% | 93% | 5.22 | Active | 5.82 | Active | Nc1scc(-c2cc(C(F)(F)F)cc(C(F)(F)F)c2)c1C(=O)c1ccccc1 |
| 50% | 50% |  |  |  |  | Nc1scc(-c2ccc(Cl)cc2)c1C(=O)c1ccc(Cl)cc1 |
| 50% | 47% |  |  |  |  | Nc1scc(-c2ccc([N+](=O)[O-])cc2)c1C(=O)c1ccccc1 |
| 64% | 73% |  |  |  |  | Nc1scc(-c2cccc(C(F)(F)F)c2)c1C(=O)c1ccc(Cl)cc1 |
| 83% | 59% | 6.37 | Active | 5.96 | Active | Nc1scc(-c2cccc(C(F)(F)F)c2)c1C(=O)c1ccccc1 |
| 76% | 90% |  |  |  |  | Nc1scc(-c2cccc(F)c2)c1C(=O)c1ccc(Cl)cc1 |
| 53% | 42% |  |  |  |  | Nc1scc(-c2cccc([N+](=O)[O-])c2)c1C(=O)c1ccc(Cl)cc1 |
| 62% | 61% |  |  |  |  | Nc1scc(-c2ccc(F)cc2)c1C(=O)c1ccc(Cl)cc1 |
| 47% | 50% |  |  |  |  | Nc1scc(-c2cccc([N+](=O)[O-])c2)c1C(=O)c1ccccc1 |
| 49% | 48% |  |  |  |  | Nc1scc(-c2ccccc2)c1C(=O)c1ccccc1 |
| 69% | 74% |  |  |  |  | Nc1scc(-c2cc(C(F)(F)F)cc(C(F)(F)F)c2)c1C(=O)c1ccc(Cl)cc1 |

| Activity [1] | Activity [2] | pKb [3] | Activity [4] | pKb [5] | Activity [6] | SMILES |
| --- | --- | --- | --- | --- | --- | --- |
| 58% | 60% |  |  |  |  | COc1cccc(-c2csc(N)c2C(=O)c2ccc(Cl)cc2)c1 |
| 51% | 50% |  |  |  |  | Nc1scc(-c2ccc(I)cc2)c1C(=O)c1ccccc1 |
| 54% | 61% |  |  |  |  | Nc1scc(-c2ccc(I)cc2)c1C(=O)c1ccc(Cl)cc1 |
| 51% | 55% |  |  |  |  | COc1ccc(-c2csc(N)c2C(=O)c2ccc(Cl)cc2)cc1 |
| 46% | 51% |  |  |  |  | Nc1scc(-c2ccc(Cl)cc2)c1C(=O)c1ccccc1 |
| 45% | 46% |  |  |  |  | Nc1scc(-c2ccc(Br)cc2)c1C(=O)c1ccc(Cl)cc1 |
| 67% | 76% |  |  |  |  | Nc1scc(-c2cccc(Br)c2)c1C(=O)c1ccccc1 |
| 55% | 68% |  |  |  |  | Nc1scc(-c2ccccc2F)c1C(=O)c1ccccc1 |
| 41% | 34% |  |  |  |  | COc1cccc(-c2csc(N)c2C(=O)c2ccccc2)c1 |
| 58% | 75% |  |  |  |  | Nc1scc(-c2cccc(Cl)c2)c1C(=O)c1ccc(Cl)cc1 |
| 51% | 60% |  |  |  |  | Nc1scc(-c2ccc(F)cc2)c1C(=O)c1ccccc1 |
| 54% | 67% |  |  |  |  | Nc1scc(-c2ccc3ccccc3c2)c1C(=O)c1ccc(Cl)cc1 |
| 62% | 69% |  |  |  |  | Nc1scc(-c2cccc(Br)c2)c1C(=O)c1ccc(Cl)cc1 |
| 70% | 87% |  |  |  |  | Nc1scc(-c2ccccc2F)c1C(=O)c1ccc(Cl)cc1 |
| 51% | 52% |  |  |  |  | Nc1scc(-c2cccc(F)c2)c1C(=O)c1ccccc1 |
| 45% | 52% |  |  |  |  | Nc1scc(-c2cccc(Cl)c2)c1C(=O)c1ccccc1 |
